Legend:
E. coli BL21-Star (DE3) = experiment: Bacterial strain response to glufosinate on minimal media; format: cell-based, Escherichia coli; parameters: key to bacterial growth on minimal media: +++ = Heavy Lawn Growth; ++ = Light lawn growth; + = patchy lawn growth; −− = No Growth; settings: for bacterial growth on minimal media: 24 hrs @ 37 C
Method: (§1) Selected cell lines of Escherichia coli and Agrobacterium tumefaciens were inoculated on minimal media containing incrementally increasing concentrations of Glufosinate (BASTA). The cell lines; BL21-Star (DE3), Top10, DH5α, Agrobacterium tumefaciens C58, and Agrobacterium tumefaciens LBA4404s were initially grown up on complex media. The Escherichia coli strains were grown in LB and the Agrobacterium tumefaciens strains were grown in YEP. Five microliters of bacterial culture was inoculated and dispersed evenly onto minimal media plates containing various concentrations of glufosinate. The concentrations consisted of 0 μg/ml, 250 μg/ml, 500 μg/ml, 1000 μg/ml, 2000 μg/ml, and 4000 μg/ml of BASTA. In addition, the bacterial strains were inoculated onto a plate of complex media as a control—Agrobacterium tumefaciens strains were inoculated on YEP agar plates, and Escherichia coli strains were inoculated on LB agar plates. The plates containing the Escherichia coli strains were incubated at 37° C. for 24 hours. The plates containing the Agrobacterium tumefaciens strains were incubate at 25° C. for 48 hours. […] Table 7 illustrates the capability of the various strains to grow on minimal media containing glufosinate.

[1] = system: WT corn (5× H751× Hi II control plants); experiment: Corn response to glufosinate applied postemergence; format: in vivo; settings: 14DAT
From the text: The seed from the cross of T1 DSM-2 (v2)×5× H751 were planted into 4-inch pots containing Metro Mix media and at 2 leaf stage were sprayed in the track sprayer set to 187 L/ha at 560 g ai/ha glufosinate to remove nulls. At 7 DAT nulls were removed and resistant plants were sprayed in the track sprayer as above at the following rates: 0, 560, 1120, 2240, and 4480 g ai/ha glufosinate. Plants were graded at 3 and 14 DAT and compared to 5× H751× Hi II control plants.

[2] = system: Escherichia coli BL21-Star (DE3) with AtUbi10 promoter//PAT (3779); experiment: Plant promoter driven complementation on glufosinate, plasmid 3779; format: cell-based; parameters: key: ++++ = Heavy Lawn Growth; +++ = Lawn Growth; ++ = Lots of Distinct Colonies; + = Scattered Colony Growth; settings: 48 hrs @37 C
Method: Plasmid constructs in which the DSM-2 (v2) and PAT gene coding sequences were expressed, under either the viral promoters CsVMV or the plant promoter AtUbi10, were assayed for complementation on minimal media containing glufosinate. The plasmids 3778 (Rb7 MARv3//AtUbi10 promoter//DSM-2 (v2)//Atu Orf 1 3′UTR), 3779 (Rb7 MARv3//AtUbi10 promoter//PAT//Atu Orf 1 3′UTR), 3264 (CsVMV promoter//DSM-2//Atu Orf 24 3′UTR), 3037 (CsVMV promoter//PAT//Atu Orf 25/26 3′UTR), and 770 (control plasmid containing CsVMV promoter//GUS v3//Atu Orf 24 3′UTR) were transformed into Escherichia coli BL21-Star (DE3) and grown up in complex media. Five microliters of the cultures were plated on minimal media containing increasing concentrations of Glufosinate and incubated at 37° C. for 48 hours.

[3] = system: Escherichia coli BL21-Star (DE3) expressing PAT (v3); experiment: Complementation of cell growth on glufosinate, pDAB4434 (PAT v3); format: cell-based; parameters: key: −− = No Growth; +++ = Distinct Colony Growth; settings: 24 hrs @28 C, 20 uM IPTG
From the text: A pET28a(+) expression plasmid containing PAT (v3) was constructed as a positive control. PAT (v3) was cloned as an NcoI-SacI fragment into corresponding restriction sites of pDAB779. Positive clones containing the PAT (v3) gene fragment were verified via restriction enzyme digestion. This construct was labeled as pDAB4434.
The plasmids, pDAB4434, pDAB4412, and an empty pET vector (control) were transformed into Escherichia coli BL21-Star (DE3) bacterial cells. Expression cultures were initiated with 10-200 freshly transformed colonies into 250 mL LB medium containing 50 μg/ml antibiotic and 75 μM IPTG (isopropyl-[…]). The cultures were grown at 28° C. for 24 hours at 180-200 rpm. Five microliters of the culture was inoculated onto a complex media control and minimal media containing incrementally increasing concentrations of glufosinate and 20 μM IPTG. The cultures were dispersed evenly over the plates and incubated at 28° C. for 24 hours.

E. coli DH5α = experiment: Bacterial strain response to glufosinate on minimal media; format: cell-based, Escherichia coli; parameters: key: +++ = Heavy Lawn Growth; ++ = Light lawn growth; + = patchy lawn growth; −− = No Growth; settings: 24 hrs @ 37 C
Method: as §1

E. coli Top10 = experiment: as above; format: cell-based, Escherichia coli; parameters: key: +++ = Heavy Lawn Growth; ++ = Light lawn growth; + = patchy lawn growth; −− = No Growth; settings: 24 hrs @ 37 C
Method: as §1

[4] = 560 g ai/ha glufosinate postemergence
[5] = 1120 g ai/ha glufosinate postemergence
[6] = 2240 g ai/ha glufosinate postemergence
[7] = 4480 g ai/ha glufosinate postemergence

With `CP(=O)(O)CCC(N)C(=O)O` (stereo not shown) [glufosinate] the “bacterial growth on minimal media” value (E. coli BL21-Star (DE3); 250 μg/ml BASTA) was “−−”, the “bacterial growth on minimal media” value (E. coli BL21-Star (DE3); 500 μg/ml BASTA) was “−−” and the “bacterial growth on minimal media” value (E. coli BL21-Star (DE3); 1000 μg/ml BASTA) was “−−”. For the same molecule, the “bacterial growth on minimal media” value (E. coli BL21-Star (DE3); 2000 μg/ml BASTA) was “−−”, the “bacterial growth on minimal media” value (E. coli BL21-Star (DE3); 4000 μg/ml BASTA) was “−−” and the “concentration in minimal media at which the cell line was inhibited” value (E. coli BL21-Star (DE3); minimal media) was 100 µg/mL. For the same molecule, the “inhibition of strain by glufosinate” value (E. coli BL21-Star (DE3); minimal media, 250-4000 μg/ml BASTA) was “substantially inhibited”, the “% Injury Ave” value [1, 4] was 100% and the “individuals with % Injury 20-40%” value [1, 4] was 0. For the same molecule, the “individuals with % Injury <20%” value [1, 4] was 0, the “individuals with % Injury >40%” value [1, 4] was 4 and the “% Injury Ave” value [1, 5] was 100%. The “individuals with % Injury 20-40%” value [1, 5] was 0, the “individuals with % Injury <20%” value [1, 5] was 0 and the “individuals with % Injury >40%” value [1, 5] was 4. For the same molecule, the “% Injury Ave” value [1, 6] was 100%, the “individuals with % Injury 20-40%” value [1, 6] was 0 and the “individuals with % Injury <20%” value [1, 6] was 0. The “individuals with % Injury >40%” value [1, 6] was 4, the “% Injury Ave” value [1, 7] was 100% and the “individuals with % Injury 20-40%” value [1, 7] was 0. For the same molecule, the “individuals with % Injury <20%” value [1, 7] was 0, the “individuals with % Injury >40%” value [1, 7] was 4 and the “bacterial growth on minimal media” value ([2]; 250 μg/ml BASTA) was “++++”. For the same molecule, the “bacterial growth on minimal media” value ([2]; 500 μg/ml BASTA) was “+++”, the “bacterial growth on minimal media” value ([2]; 1000 μg/ml BASTA) was “+++” and the “bacterial growth on minimal media” value ([2]; 2000 μg/ml BASTA) was “+++”. For the same molecule, the “bacterial growth on minimal media” value ([2]; 4000 μg/ml BASTA) was “+++”, the “bacterial growth on minimal media” value ([3]; 250 μg/ml BASTA) was “+++” and the “bacterial growth on minimal media” value ([3]; 500 μg/ml BASTA) was “+++”. For the same molecule, the “bacterial growth on minimal media” value ([3]; 1000 μg/ml BASTA) was “+++”, the “bacterial growth on minimal media” value ([3]; 2000 μg/ml BASTA) was “+++” and the “bacterial growth on minimal media” value ([3]; 4000 μg/ml BASTA) was “+++”. The “bacterial growth on minimal media” value (E. coli DH5α; 250 μg/ml BASTA) was “+++”, the “bacterial growth on minimal media” value (E. coli DH5α; 500 μg/ml BASTA) was “+++” and the “bacterial growth on minimal media” value (E. coli DH5α; 1000 μg/ml BASTA) was “+++”. For the same molecule, the “bacterial growth on minimal media” value (E. coli DH5α; 2000 μg/ml BASTA) was “+++”, the “bacterial growth on minimal media” value (E. coli DH5α; 4000 μg/ml BASTA) was “−−” and the “bacterial growth on minimal media” value (E. coli Top10; 250 μg/ml BASTA) was “+++”. For the same molecule, the “bacterial growth on minimal media” value (E. coli Top10; 500 μg/ml BASTA) was “+++”, the “bacterial growth on minimal media” value (E. coli Top10; 1000 μg/ml BASTA) was “+++” and the “bacterial growth on minimal media” value (E. coli Top10; 2000 μg/ml BASTA) was “+”. The “bacterial growth on minimal media” value (E. coli Top10; 4000 μg/ml BASTA) was “−−”.

From US20110195845A1, “Constructs for Expressing Herbicide Tolerance Genes, Related Plants, and Related Trait Combinations” (Dow AgroSciences LLC, priority 2008, published 2011)
